These results are taken from the Kinase Knowledgebase extract (Sharma et al. 2016).

For this assay, the target named is MAPK14;MAPK11;MAPK12 (human) (UniProt Q16539). In words: Inhibition of p38 Kinase Activity.

pIC50: −log10 of the molar value.

`CCN1CC[C@@H](Nc2nc(Nc3cc(C(=O)NOC)ccc3C)nc(N(C)CC(C)(C)C)n2)C1` gave a pIC50 of more than 6.00. Compound `Cc1ccc(C(N)=O)cc1Nc1nc(N[C@H]2CN[C@@H](C)C2)nc(N(C)CC(C)(C)C)n1` had a pIC50 of more than 6.00. As for `CONC(=O)c1ccc(F)c(Sc2nc(N(C)CC(C)(C)C)nc(N3CCCN(C)CC3)n2)c1`, the figure is more than 4.52.

`Cc1ccc(C(N)=O)cc1Nc1nc(N[C@H]2CCN(CCC#N)C2)nc(N(C)CC(C)(C)C)n1` showed a pIC50 of more than 6.00. As for `CNCCN(C)c1nc(NC[C@H](C)c2ccccc2)nc(Nc2ccc3ncsc3c2)n1`, the figure is more than 5.00.

In turn, `CCNC(=O)c1ccc(C)c(Nc2nc(NC[C@H]3CCCN3)nc(N(C)CC(C)C)n2)c1` had a pIC50 of more than 6.00. On to `CNC(=O)c1ccc(C)c(Nc2nc(N[C@H]3CCNC3)nc(SCC(C)C)n2)c1`, for which the pIC50 is more than 6.00. Compound `Cc1ccc(C(N)=O)cc1Nc1nc(N[C@H]2CCN(C3CCCCC3)C2)nc(N(C)CC(C)(C)C)n1` had a pIC50 of more than 6.00. The figure for `CNC(=O)c1ccc(C)c(Nc2nc(NC3CCN(Cc4ccccn4)C3)nc(N(C)CC(C)(C)C)n2)c1` (stereo not given) is more than 6.00; for `Cc1ccc(C(N)=O)cc1Nc1nc(NC2CCCNC2)nc(N(C)CC(C)C)n1` (stereo not given) it is more than 6.00; for `CONC(=O)c1ccc(C)c(Nc2nc(N[C@H]3CCNC3)nc(N(C)CC(C)(C)C)n2)c1` it is more than 6.00. Compound `Cc1ccc(CC2C[C@@H](Nc3nc(Nc4cc(C(N)=O)ccc4C)nc(N(C)CC(C)C)n3)CN2)cc1` (stereo not given in full) showed a pIC50 of more than 6.00. As for `COC1CCCC(C(=O)N2CCN(c3nc(NCC(C)c4ccccc4)nc(Nc4ccc5ncsc5c4)n3)CC2)C1` (stereo not given), the figure is more than 5.00; as for `Cc1ccc(C(=O)Nc2ccccc2)cc1Nc1nc(N[C@H]2CCNC2)nc(N(C)CC(C)C)n1`, more than 6.00; as for `CCONC(=O)c1ccc(C)c(Nc2nc(N(C)CC(C)(C)C)cc(N3CCCN(C)CC3)n2)c1`, more than 6.00. As for `O=C(O)CCC(=O)N1CCN(c2nc(Nc3ccc4ncsc4c3)nc(N3CCc4ccccc4C3)n2)CC1`, the figure is more than 5.00.

`Cc1ccc(C(N)=O)cc1Nc1nc(N[C@H]2CCNC2)nc(N(C)CC(C)(C)C)n1` gave a pIC50 of more than 6.00. The compound `Cc1ccc(C(N)=O)cc1Nc1nc(NCC(C)(C)C)nc(N[C@@H]2CCNC2)n1` showed a negative-log IC50 (pIC50) of more than 6.00. The figure for `Cc1ccc(C(N)=O)cc1Nc1nc(N[C@H]2CCN(C3CCC3)C2)nc(N(C)CC(C)(C)C)n1` is more than 6.00; for `Cc1ccc(C(=O)Nc2ccc(F)cc2)cc1Nc1nc(N[C@H]2CCNC2)nc(N(C)CC(C)(C)C)n1` it is more than 6.00. As for `Cc1ccc(C(N)=O)cc1Nc1nc(N[C@H]2CCN(Cc3ccc(O)cc3)C2)nc(N(C)CC(C)(C)C)n1`, the figure is more than 6.00. `Cc1ccc(-c2ncc[nH]2)cc1Nc1nc(N(C)CC(C)(C)C)nc(N2CCCN(C)CC2)n1` had a negative logarithm of the IC50 (pIC50) of more than 6.00. The figure for `Cc1ccc(C(N)=O)cc1Nc1nc(N[C@H]2CCNC2)nc(N(C)CC(C)c2ccc(Cl)cc2)n1` (stereo not given in full) is more than 6.00; for `Cc1ccc(C(N)=O)cc1Nc1nc(N[C@H]2CCN(S(C)(=O)=O)C2)nc(N(C)CC(C)C)n1` it is more than 6.00; for `CC1(C)[C@H]2CC[C@H](CNc3nc(Nc4ccc5ncsc5c4)nc(N4CCNCC4)n3)[C@@H]1C2` it is more than 5.00. As for `Cc1ccc(C(N)=O)cc1Nc1nc(N[C@H]2CCN(Cc3ccc(F)cc3)C2)nc(N(C)CC(C)C)n1`, the figure is more than 6.00; as for `Cc1ccc(C(N)=O)cc1Nc1nc(NCC2CCC2)nc(N[C@H]2CCNC2)n1`, more than 6.00; as for `CCNC(=O)c1ccc(C)c(Nc2nc(N[C@@H]3CCN(C4=CC(=O)CC(C)(C)C4)C3)nc(N(C)CC(C)(C)C)n2)c1`, more than 6.00. `CC(CNc1nc(Nc2ccc3ncsc3c2)nc(N2CCN(S(=O)(=O)N(C)C)CC2)n1)c1ccccc1` (stereo not given) had a pIC50 of more than 5.00.

For `Cc1ccc(C(N)=O)cc1Nc1nc(NCCc2ccc(O)cc2)nc(N[C@H]2CCNC2)n1`, the pIC50 was more than 6.00. The figure for `Cc1cc2c(cc1Cl)C(=O)N2c1nc(N[C@H]2CCNC2)nc(N(C)CC(C)C)n1` is more than 6.00; for `CNc1nc(Nc2cc(C(N)=O)ccc2C)nc(N[C@H]2CCNC2)n1` it is more than 6.00. The figure for `CCC(CNc1nc(Cl)nc(Nc2ccc3ncsc3c2)n1)c1ccccc1` (stereo not given) is more than 5.00. In the case of `CC(CNc1nc(Nc2ccc3ncsc3c2)nc(N2CCN(C(=O)c3cccnc3)CC2)n1)c1ccccc1` (stereo not given), the pIC50 is more than 5.00.

`Cc1ccc(C(N)=O)cc1Nc1nc(N[C@H]2CCN(c3ccccc3)C2)nc(N(C)CC(C)(C)C)n1` gave a pIC50 of more than 6.00. Compound `CCOCNc1nc(NCC(C)c2ccccc2)nc(Nc2ccc3ncsc3c2)n1` (stereo not given) gave a pIC50 of more than 5.00. As for `CONC(=O)c1ccc(C)c(Sc2nc(NCc3ccccn3)nc(N(C)CC(C)(C)C)n2)c1`, the figure is more than 4.52; as for `CNC(=O)c1ccc(C)c(Nc2nc(N[C@H]3CCN(C(C)CO)C3)nc(N(C)CC(C)(C)C)n2)c1` (stereo not given in full), more than 6.00; as for `CC1(C)C2CCC(CNc3nc(Nc4ccc5ncsc5c4)cc(N4CCNCC4)n3)C1C2` (stereo not given), more than 5.00. As for `Cc1ccc(CO)cc1Nc1nc(N[C@H]2CCNC2)nc(N(C)CC(C)(C)C)n1`, the figure is more than 6.00; as for `CC(CNc1nc(Nc2ccc3ncsc3c2)nc(N(C)CCCN(C)C(=S)NC2CCCCC2)n1)c1ccccc1` (stereo not given), more than 5.00. The figure for `Cc1ccc(C(N)=O)cc1Nc1nc(N[C@H]2CCN(Cc3ccc(Cl)cc3)C2)nc(N(C)CC(C)C)n1` is more than 6.00; for `CCNC(=O)N1CCN(c2nc(NC[C@@H]3CC[C@H]4C[C@@H]3C4(C)C)nc(Nc3ccc4ncsc4c3)n2)CC1` it is more than 5.00; for `CC1(C)[C@H]2CC[C@@H](CNc3nc(N4CCCNCC4)nc(N4CCc5ccc([N+](=O)[O-])cc54)n3)[C@@H]1C2` it is more than 6.00.

Take `Cc1ccc(C(N)=O)cc1Nc1nc(NCC(C)c2ccccc2)nc(N[C@H]2CCNC2)n1` (stereo not given in full): the pIC50 is more than 6.00. The figure for `CCN1C[C@@H](Nc2nc(Nc3cc(C(N)=O)ccc3C)nc(N(C)CC(C)(C)C)n2)C[C@H]1C` is more than 6.00. As for `CONC(=O)c1ccc(C)c(Nc2nc(NCCCN3CCOCC3)nc(N(C)CC(C)(C)C)n2)c1`, the figure is more than 6.00. The figure for `CNCCN(C)c1nc(NC[C@@H]2CC[C@H]3C[C@@H]2C3(C)C)nc(Nc2ccc3ncsc3c2)n1` is more than 5.00. As for `CCNC(=O)c1ccc(C)c(Nc2nc(N[C@H]3CCNC3)nc(N(C)CC3CCCC3)n2)c1`, the pIC50 was more than 6.00. The figure for `COc1ccccc1CN1CC[C@@H](Nc2nc(Nc3cc(C(N)=O)ccc3C)nc(N(C)CC(C)C)n2)C1` is more than 6.00; for `CC(CNc1nc(Nc2ccc3ncsc3c2)nc(N2CCN(C(=O)c3ccco3)CC2)n1)c1ccccc1` (stereo not given) it is more than 5.00; for `Cc1ccc(C(N)=O)cc1Nc1nc(N[C@H]2CCN(Cc3cccc(Cl)c3)C2)nc(N(C)CC(C)C)n1` it is more than 6.00. The figure for `COCCN1CCC(Nc2nc(Nc3cc(C(N)=O)ccc3C)nc(N(C)CC(C)C)n2)C1` (stereo not given) is more than 6.00; for `Cc1ccc(C(N)=O)cc1Nc1nc(NCC(C)c2ccc(Cl)cc2)nc(N[C@H]2CCNC2)n1` (stereo not given in full) it is more than 6.00.

Take `COCC(C)N1CC[C@@H](Nc2nc(Nc3cc(C(N)=O)ccc3C)nc(N(C)CC(C)(C)C)n2)C1` (stereo not given in full): the negative logarithm of the IC50 (pIC50) is more than 6.00. The figure for `Cc1ccccc1CN1CC[C@H](Nc2nc(Nc3cc(C(N)=O)ccc3C)nc(N(C)CC(C)C)n2)C1` is more than 6.00; for `Cc1ccc(-c2nnco2)cc1Nc1nc(N[C@@H]2CCNC2)nc(N(C)CC(C)(C)C)n1` it is more than 6.00; for `CONC(=O)c1ccc(C)c(Nc2nc(NCCn3cccn3)nc(N(C)CC(C)(C)C)n2)c1` it is more than 6.00. As for `Cc1ccc(C(N)=O)cc1Nc1nc(N[C@@H]2CCNC2)nc(N2CCC(C)(C)CC2)n1`, the figure is more than 6.00; as for `CNC(=O)c1ccc(C)c(Sc2nc(NCc3ccccn3)nc(N(C)CC(C)(C)C)n2)c1`, more than 4.52. Compound `Cc1ccc(C(N)=O)cc1Nc1nc(N[C@@H]2CCNC2)nc(N(C)C2CCCC2)n1` gave a pIC50 of more than 6.00. As for `CC(C)OCCNc1cc(Cl)nc(-n2cnc3ccccc32)n1`, the figure is more than 5.00; as for `CNc1nc(NCCOC(C)C)nc(Nc2ccc3ncsc3c2)n1`, more than 5.00. The figure for `CONC(=O)c1ccc(C)c(Nc2nc(N[C@H]3CCN(C)C3)nc(N(C)CC(C)(C)C)n2)c1` is more than 6.00; for `Cc1ccc(C)c(CN2CC[C@H](Nc3nc(Nc4cc(C(N)=O)ccc4C)nc(N(C)CC(C)C)n3)C2)c1` it is more than 6.00; for `Cc1ccc(C(N)=O)cc1Nc1nc(N[C@H]2CCNC2)nc(N(C)CC23CC4CC(CC(C4)C2)C3)n1` it is more than 6.00.

On to `CC(C)c1nc(NC[C@@H]2CC[C@@H]3C[C@H]2C3(C)C)nc(Nc2ccc3ncsc3c2)n1`, for which the pIC50 was more than 5.00. In turn, `Cc1ccc(C(N)=O)cc1Nc1nc(N[C@H]2CCN(Cc3ccccc3)C2)nc(N(C)CC(C)C)n1` gave a pIC50 of more than 6.00. As for `O=S(=O)(Nc1ncccn1)c1ccc(Nc2nc(Cl)nc(NCCc3ccccc3)n2)cc1`, the figure is more than 5.00; as for `CONC(=O)c1ccc(C)c(Nc2nc(N[C@H]3CCN(C(C)C)C3)nc(N(C)CC(C)(C)C)n2)c1`, more than 6.00; as for `Cc1ccc(C(N)=O)cc1Nc1nc(NCC(C)c2ccccc2)nc(N[C@@H]2CCNC2)n1` (stereo not given in full), more than 6.00.

The compound `CNCCN(C)c1nc(NCC2CCC3CC2C3(C)C)nc(Nc2ccc3ncccc3c2)n1` (stereo not given) showed a pIC50 of more than 5.00. As for `Cc1ccc(C(N)=O)cc1Nc1nc(N[C@@H]2CCNC2)nc(N2CCCC(C(N)=O)C2)n1` (stereo not given in full), the figure is more than 6.00. `CCCN1CC[C@@H](Nc2nc(Nc3cc(C(N)=O)ccc3C)nc(N(C)CC(C)C)n2)C1`: the pIC50 is more than 6.00. For `CCCN(C)c1nc(Nc2cc(C(N)=O)ccc2C)nc(N[C@H]2CCNC2)n1`, the pIC50 is more than 6.00. Consider `CC(C)NC(=O)N(C)CCCN(C)c1nc(NCC(C)c2ccccc2)nc(Nc2ccc3ncsc3c2)n1` (stereo not given), for which the pIC50 is more than 5.00.

As for `CC(CNc1nc(Nc2ccc3ncsc3c2)nc(N2CC3CC2CN3S(=O)(=O)N(C)C)n1)c1ccccc1` (stereo not given), the pIC50 was more than 5.00.

`CC(CNc1nc(Nc2ccc3ncsc3c2)nc(N2CC3CC2CN3C(=O)Cc2ccc(Cl)c(Cl)c2)n1)c1ccccc1` (stereo not given) gave a pIC50 of more than 5.00. As for `CONC(=O)c1ccc(C)c(Nc2nc(N[C@@H]3CCCNC3=O)nc(N(C)CC(C)(C)C)n2)c1`, the figure is more than 6.00; as for `CC(=O)Nc1ccc(C)c(Nc2nc(N[C@H]3CCNC3)nc(N(C)CC(C)(C)C)n2)c1`, more than 6.00.
